Data taken from ChEMBL document CHEMBL1201862, “PubChem BioAssay data set” (2004).
Counter-ions that a name gives are not always drawn. The source made the active and inactive calls.

Assays:
[1] = target: T1, Ubiquitin-conjugating enzyme E2 N (Homo sapiens, UniProt P61088); format: functional;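 note: Dose-response confirmation in a TR-FRET assay detecting UBC13-driven polyubiquitin chain formation, inhibition measured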
T1 sequence (P61088 whole entry): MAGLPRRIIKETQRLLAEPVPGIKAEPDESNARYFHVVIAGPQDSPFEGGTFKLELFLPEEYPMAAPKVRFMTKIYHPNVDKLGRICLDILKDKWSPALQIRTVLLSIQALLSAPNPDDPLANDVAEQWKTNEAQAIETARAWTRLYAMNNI

[2] = non-specific 3'UTR reporter inhibition in Clone20-Shn3RL – cell-based, Renilla luciferase, cherry-picked, counter-screen for Shn3 inhibitor project, dose response (AID 624133); format: functional
[3] = reduction of Shn3 3'UTR-driven luciferase in osteoblasts – cell-based, Clone20 osteoblasts, firefly luciferase, cherry-picked, dose response (AID 624132); format: functional;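 note: firefly luciferase luminescence from reporter carrying the Shn3 3'UTR in osteoblasts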
[4] = luciferase reporter signal suppression in cells – H4 neuroglioma cells, luminescence, dose response (AID 1990); format: functional, cell-based
[5] = Luminescence Cell-Based Dose Response HTS to Identify Inhibitors of 5'UTR Stem-Loop Driven Prion Protein mRNA Translation in H4 Neuroglioblastoma Cells. [Related pubchem assays: 1827 (Project Summary), 1813 (Primary HTS)]; format: functional
[6] = target: T2, Heat shock factor protein 1 (Mus musculus, UniProt P38532); experiment: enhancement of HSF1-driven luciferase signal – cell-based, NIH3T3, luminescence, dose retest, confirmation (AID 435004); format: functional;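 note: stress induced by proteasome inhibitor MG132 added 30 min after compound; luciferase reporter driven by HSF1 response element in NIH3T3 cells; actives raise luminescence as potentiators of the MG132 stress response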
T2 sequence (P38532 whole entry): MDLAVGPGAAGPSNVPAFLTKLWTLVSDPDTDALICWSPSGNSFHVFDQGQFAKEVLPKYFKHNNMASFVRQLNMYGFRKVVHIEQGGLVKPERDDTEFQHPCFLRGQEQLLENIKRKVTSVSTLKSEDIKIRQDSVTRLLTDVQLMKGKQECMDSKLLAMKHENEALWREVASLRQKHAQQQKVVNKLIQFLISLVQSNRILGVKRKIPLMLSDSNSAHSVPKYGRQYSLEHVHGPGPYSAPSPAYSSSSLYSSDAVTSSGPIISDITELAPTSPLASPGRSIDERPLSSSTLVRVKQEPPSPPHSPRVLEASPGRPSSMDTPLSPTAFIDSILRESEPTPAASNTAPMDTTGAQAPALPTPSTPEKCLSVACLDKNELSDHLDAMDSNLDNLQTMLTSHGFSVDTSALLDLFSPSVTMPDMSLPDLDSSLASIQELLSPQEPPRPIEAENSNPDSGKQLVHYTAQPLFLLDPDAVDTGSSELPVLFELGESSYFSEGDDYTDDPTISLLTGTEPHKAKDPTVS

[7] = viability of PTEN-deleted HCT116 cells – cell-based, HCT116 PTEN knockout, dose response (AID 1047); format: functional;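 note: HCT116 colon tumor cells with PTEN knocked out; cells exposed to compound for 60 hours before readout; potency for loss of cell viability measured by luminescence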
[8] = NIH3T3 cell viability loss – ATP luminescence, mouse fibroblasts, counter-screen, dose response (AID 2010); format: functional, cell-based;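 note: cells exposed to compound for about 90 hours before reading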
[9] = viability of HCT116 lacking mutant beta-catenin – cell-based, human colon tumor, dose response (AID 1045); format: functional;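 note: HCT116 colon tumor cells with beta catenin knocked out; cells exposed to compound for 60 hours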
[10] = Trypanosoma cruzi growth suppression in host cells – NIH3T3 host cells, beta-gal luminescence, confirmation (AID 2044); format: functional, cell-based;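 note: intracellular parasites grown in NIH/3T3 mouse fibroblasts as host cells; luminescent beta-galactosidase reporter signal from transgenic T. cruzi replicating inside host cells; inhibitors lower the luminescence signal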
[11] = Luminescence Cell-Based Dose Retest to Confirm Inhibitors of Cancer Stem Cells. [Related pubchem assays (depositor defined):AID2717, AID2721]; format: functional; settings: Homo sapiens
[12] = target: T3, Replicative DNA helicase DnaB (Mycobacterium tuberculosis, UniProt P9WMR3); experiment: DnaB intein splicing inhibitors, dose response, biochemical, cell-free fluorescence (AID 449749); format: functional
T3 sequence (P9WMR3 whole entry): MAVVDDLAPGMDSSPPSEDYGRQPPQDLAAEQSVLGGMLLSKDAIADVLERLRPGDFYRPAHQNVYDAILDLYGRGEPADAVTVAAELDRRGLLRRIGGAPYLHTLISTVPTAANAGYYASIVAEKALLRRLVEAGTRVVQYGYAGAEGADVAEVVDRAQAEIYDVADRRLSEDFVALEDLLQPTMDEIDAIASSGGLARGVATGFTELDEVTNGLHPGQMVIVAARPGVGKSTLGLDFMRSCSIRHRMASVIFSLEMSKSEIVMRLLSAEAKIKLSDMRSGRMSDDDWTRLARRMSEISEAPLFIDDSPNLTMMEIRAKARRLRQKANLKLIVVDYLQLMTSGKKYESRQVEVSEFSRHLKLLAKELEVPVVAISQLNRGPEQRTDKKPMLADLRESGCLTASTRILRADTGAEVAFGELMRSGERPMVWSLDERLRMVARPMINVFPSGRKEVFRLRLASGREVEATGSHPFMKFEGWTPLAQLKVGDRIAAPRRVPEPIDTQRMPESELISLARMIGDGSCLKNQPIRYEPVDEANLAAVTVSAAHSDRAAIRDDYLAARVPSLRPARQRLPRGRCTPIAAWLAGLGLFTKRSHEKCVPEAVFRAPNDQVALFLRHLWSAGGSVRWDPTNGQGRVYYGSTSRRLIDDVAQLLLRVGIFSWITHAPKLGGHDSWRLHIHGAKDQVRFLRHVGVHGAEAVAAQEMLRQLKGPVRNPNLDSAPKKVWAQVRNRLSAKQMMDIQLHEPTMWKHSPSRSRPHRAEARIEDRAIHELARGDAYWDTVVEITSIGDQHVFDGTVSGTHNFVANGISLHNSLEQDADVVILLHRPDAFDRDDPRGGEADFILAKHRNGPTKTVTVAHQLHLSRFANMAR

[13] = loss of viability in HepG2 cells – cell-based, CellTiter-Glo, cherry-picked, cytotoxicity control for Shn3 inhibitor project, dose response (AID 624134); format: functional
Protein RecA = target: T4, Protein RecA (Mycobacterium tuberculosis, UniProt P9WHJ3); experiment: Fluorescence Cell-Free Homogeneous Dose Retest to Identify Inhibitors of RecA-Intein Splicing Activity. [Related pubchem assays (depositor defined):AID2097, AID2223, AID489010, AID492950]; format: functional
T4 sequence (P9WHJ3 whole entry): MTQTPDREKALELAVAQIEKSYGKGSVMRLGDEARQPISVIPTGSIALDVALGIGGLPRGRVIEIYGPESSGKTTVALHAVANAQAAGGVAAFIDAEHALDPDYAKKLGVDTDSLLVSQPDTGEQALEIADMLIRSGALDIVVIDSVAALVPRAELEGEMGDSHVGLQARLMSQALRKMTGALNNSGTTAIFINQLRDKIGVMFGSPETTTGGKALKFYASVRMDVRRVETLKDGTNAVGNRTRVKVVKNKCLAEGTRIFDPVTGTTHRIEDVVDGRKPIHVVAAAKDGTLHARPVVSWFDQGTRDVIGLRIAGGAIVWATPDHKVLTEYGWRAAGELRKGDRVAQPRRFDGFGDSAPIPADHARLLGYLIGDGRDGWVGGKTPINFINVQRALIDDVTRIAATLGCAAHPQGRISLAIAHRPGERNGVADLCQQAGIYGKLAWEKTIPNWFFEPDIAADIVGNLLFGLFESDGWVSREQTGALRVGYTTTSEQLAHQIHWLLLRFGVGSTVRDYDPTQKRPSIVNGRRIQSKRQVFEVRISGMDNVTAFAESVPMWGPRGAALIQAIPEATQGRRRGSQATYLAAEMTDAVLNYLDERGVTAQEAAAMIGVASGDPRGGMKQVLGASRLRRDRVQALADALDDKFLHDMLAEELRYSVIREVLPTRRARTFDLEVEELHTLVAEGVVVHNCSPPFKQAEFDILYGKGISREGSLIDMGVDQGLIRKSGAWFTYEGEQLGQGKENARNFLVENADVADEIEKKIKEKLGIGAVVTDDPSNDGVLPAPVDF

cells [14] = format: functional, cell-based
cells [15] = format: functional, cell-based; remark: listed apart in the source
INS1 = experiment: INS-1E survival protection against cytokine death – cell-based, luminescence, retest, dose response (AID 449756); format: functional; settings: Rattus norvegicus;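 note: cell death triggered by IL-1 beta plus TNF-alpha plus IFN-gamma mixture; protective hits raise ATP signal compared with cytokine alone wells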
[16] = target: T2, Heat shock factor protein 1; experiment: decrease of HSF1-responsive luciferase luminescence – cell-based, NIH3T3, dose retest, confirmation (AID 2382); format: functional;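 note: NIH3T3 fibroblasts with HSF1-driven luciferase reporter stressed by proteasome inhibitor MG132; luminescence from HSF1-driven luciferase expression after 8 hours of MG132 stress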
[17] = viability of uninfected HEp-2 cells – cell-based, HTS, cytotoxicity control for RSV inhibitor project, dose response (AID 2410); format: functional; settings: human respiratory syncytial virus

## CN1CCCC(CC2c3ccccc3Sc3ccccc32)C1 (configuration not stated) [METHIXENE HYDROCHLORIDE]
[1]
  IC50: > 20 µM (inactive)

## COc1ccc([C@H]2CC(=O)C=C(c3ccc4c(c3)OCO4)C2)cc1OC
[2]
  AC50: 28.9 µM (active)
[3]
  AC50: 58.3 µM (active)

## CCC(CC)NC(=O)c1cc2c(C)nn(Cc3ccccc3Cl)c2s1
[4]
  EC50: 11.7 µM (active)
[5]
  EC50: > 120 µM (not active)

## CCOC(=O)c1c(NC(=O)CSc2nc3cc(Cl)ccc3c(=O)n2Cc2ccco2)sc(C(=O)N(C)C)c1C
[6]
  EC50: 7.33 µM (active)
[7]
  EC50: 6.8 µM (active)
[8]
  EC50: > 60 µM (inconclusive)
[9]
  EC50: 12.2 µM (active)
[10]
  EC50: 0.999 µM (active)

## CC(=O)Nc1ccc(S(=O)(=O)N2CCN(CC(O)COc3ccc4ccccc4c3)CC2)cc1 (configuration not stated)
[1]
  IC50: > 20 µM (inactive)

## O=C(NCc1ccc2c(c1)OCO2)c1nc(S(=O)(=O)Cc2ccccc2F)ncc1Cl
[2]
  AC50: 5.92 µM (active)
[11]
  AC50: 5.02 µM (active)
[12]
  AC50: 2.6 µM (active)
[3]
  AC50: 5.19 µM (active)
[13]
  AC50: 31.1 µM (active)
Protein RecA
  EC50: 3.25 µM (active)

## C=C(C)CN=C(S)N=Nc1c(O)[nH]c2ccc([N+](=O)[O-])cc12
[1]
  IC50: > 20 µM (inactive)
[12]
  AC50: 52.8 µM (active)
Protein RecA
  EC50: 151 µM (inconclusive)

## CNC(=O)C1CC(=O)N(c2ccc(OCC(=O)N3CCCC3)cc2)C1 (configuration not stated)
[6]
  EC50: > 260 µM (inactive)
Cells [14]
  EC50: > 350 µM (not active)
Cells [15]
  EC50: > 350 µM (not active)

## NC(CSCc1cccc(Br)c1)C(=O)O (configuration not stated)
[6]
  EC50: > 260 µM (inactive)

## CCOC(=O)c1c(N2C(=O)C3C4C=CC(O4)C3C2=O)sc2c1CCCC2 (configuration not stated)
[6]
  EC50: > 260 µM (inactive)

## COc1cccc(CNc2ccc([N+](=O)[O-])cc2Cl)c1O
[6]
  EC50: 163 µM (active)

## Cc1ccc(S(=O)(=O)c2c(N)n(Cc3ccco3)c3nc4ccccc4nc23)cc1C
[7]
  EC50: 18.4 µM (active)
[9]
  EC50: 20.1 µM (active)

## O=C(NNC(=O)C(O)(c1ccccc1)c1ccccc1)C1CC1
Cells [14]
  EC50: > 350 µM (not active)
Cells [15]
  EC50: > 350 µM (not active)

## Cc1ccc(C)c(NC(S)=NC(NC(=O)Cc2cccc3ccccc23)C(Cl)(Cl)Cl)c1 (configuration not stated)
[7]
  EC50: 13.9 µM (active)
[11]
  AC50: 0.861 µM (active)
INS1
  AC50: 4.16 µM (active)
[9]
  EC50: 15.5 µM (active)

## CCOC(=O)c1cc2sccc2n1CC(=O)Nc1ccc(OC)cc1
[16]
  EC50: > 195 µM (not active)
Cells [14]
  EC50: > 350 µM (not active)
Cells [15]
  EC50: > 350 µM (not active)

## COc1ccc(/N=c2\oc3ccc(OC)cc3cc2-c2nc3ccccc3[nH]2)cc1
[7]
  EC50: 3.77 µM (active)
[9]
  EC50: 13 µM (active)

## O=C(Nc1ccc(Br)cc1F)c1ccc2c(c1)OCCO2
[5]
  EC50: 10.8 µM (active)

## CCCn1c(SCC(=O)N2CCc3ccccc3C2)nc2c1c(=O)n(C)c(=O)n2C
Cells [14]
  EC50: > 350 µM (not active)
Cells [15]
  EC50: > 350 µM (not active)

## COCCCNC(=O)c1ccc(NS(C)(=O)=O)cc1
[6]
  EC50: > 260 µM (inactive)

## CN(CC(=O)Nc1ccc(S(=O)(=O)N2CCCC2)cc1)CC(=O)Nc1cccc(F)c1
Cells [14]
  EC50: > 350 µM (not active)
Cells [15]
  EC50: > 350 µM (not active)

## O=C(CCS(=O)(=O)c1ccccc1)Nc1ccccn1
[6]
  EC50: > 260 µM (inactive)

## Cc1ccc(SCCCCN2CCOCC2)cc1
[6]
  EC50: > 260 µM (inactive)

## CC(C)(C)NC(=O)CN(C(=O)Cn1nnc(-c2ccc(Cl)cc2)n1)C1CCN(Cc2ccccc2)CC1
[7]
  EC50: 41.4 µM (active)
[17]
  CC50: 25.7 µM (active)
[9]
  EC50: 37.9 µM (active)

## COc1ccc(CN(C)CC(=O)Nc2ccc(SC(F)F)cc2)cc1OC
Cells [14]
  EC50: > 350 µM (not active)
Cells [15]
  EC50: > 350 µM (not active)

## Cc1ccc2nnn(Cc3cccc(C(C)(C)C)c3O)c2c1
[2]
  AC50: 7.31 µM (active)
[6]
  EC50: > 260 µM (inactive)
[3]
  AC50: 5.44 µM (active)
[13]
  AC50: 59.3 µM (active)

## NS(=O)(=O)c1ccc(CCNC(=O)c2ccc([N+](=O)[O-])s2)cc1
[6]
  EC50: 15.7 µM (active)

## O=[N+]([O-])c1c(-c2cn[nH]c2)n[nH]c1-c1cn[nH]c1
[1]
  IC50: > 20 µM (inactive)

## O=C(Cc1ccccc1)Nc1cc(Cl)ccc1Sc1ccccc1
[6]
  EC50: > 260 µM (inactive)

## CN(CC(=O)Nc1cccc(S(=O)(=O)N2CCOCC2)c1)CC(=O)Nc1ccc(Cl)c(C(F)(F)F)c1
[2]
  AC50: 6.89 µM (active)
[3]
  AC50: 2.4 µM (active)
[13]
  AC50: 56.7 µM (active)
